System: DNA repair protein genes
Assay: DNA chip mRNA expression in yeast, DNA repair protein genes (Table 3)
Format: cell-based, Saccharomyces cerevisiae S288C
Details: incubated two hours, concentrations as in the 1st table
Method: Yeast (Saccharomyces cerevisiae S288C (α SUC2mal mel gap2 CUP1)) were incubated at 25° C. on YPD medium (yeast extract 1%, polypepton 2%, glucose 2%). One of toxic chemical substances was added to the cells at logarithmic growth phase, and the cells were further incubated for two hours. Cells were cultured without any chemical substance in the same condition, and were used as control. Concentrations of the chemical substances were defined to inhibit the growth of the yeast but not lead to death.
After completion of the incubation, the culture was centrifuged to collect the cells. To the cells, sodium acetate buffer (50 mM sodium acetate, 10 mM EDTA, 1% SDS) was added, and the mixture was shaken at 65° C. for five minutes, followed by returning to room temperature, and obtaining the supernatant, of which the procedures were repeated two times. To the supernatant, ½ amount of a solution of phenol/chloroform was added, and the mixture was centrifuged to give a supernatant, which was added with an equal amount of chloroform, and the mixture was centrifuged to give a supernatant. To the supernatant, an equal amount of isopropanol containing 0.3 M sodium acetate was added, and the mixture was allowed to stand at room temperature for 30 minutes, after which the mixture was centrifuged to give a sediment of the whole RNAs. Seventy % ethanol was added to the sediment, and the mixture was again centrifuged to give a sediment, which was then dried and dissolved in water. mRNA was isolated from the whole RNAs as followings. In view of the fact that a poly A chain is attached to the 3′ terminus of mRNA, a polynucleotide having a poly T structure which was immobilized on the surface of latex beads was used to trap the mRNA, and then the mRNA was washed and eluted with spine column (Oligotex-dT30<Super>mRNA Purification Kit, Takara). Reverse transcription of the mRNA was conducted with a reverse transcriptase (Super Script II Reverse Transcriptase; catalogue No. 18064-014, GibcoBRL) using fluorescence-labeled nucleotides to give cDNAs that were introduced with Cy3-dUTP or Cy5-dUTP during the reverse transcription.
The labeled cDNAs were dissolved in TE buffer (10mM Tris-HCl/1 mM EDTA, pH8.0), and the solution was dropped on the DNA chip containing the whole genes of yeast (DNA Chip Research Inc. Japan) so that the cDNAs were hybridized on the DNA chip at 65° C. for over 12 hours. The fluoresces intensity of the DNA chip was read with a scanner, and the ratio relative to the fluorescence intensity resulting from the absence of chemical substance was estimated as the following, which is shown in Tables 1 to 9: […]

## CCCCCCCCCCCCc1ccc(S(=O)(=O)[O-])cc1.[Na+] [(17), sodium dodecylbenzosulfonate]
Yeast gene YAL015C
  The level of expressed mRNA in the presence of chemical substance/The level of expressed mRNA in the absence of chemical substance: 1.1
Yeast gene YAR007C
  The level of expressed mRNA in the presence of chemical substance/The level of expressed mRNA in the absence of chemical substance: 0.8
Yeast gene YBL019W
  The level of expressed mRNA in the presence of chemical substance/The level of expressed mRNA in the absence of chemical substance: 0.8
Yeast gene YBR073W
  The level of expressed mRNA in the presence of chemical substance/The level of expressed mRNA in the absence of chemical substance: 0.7
Yeast gene YBR272C
  The level of expressed mRNA in the presence of chemical substance/The level of expressed mRNA in the absence of chemical substance: 1.1
Yeast gene YCR014C
  The level of expressed mRNA in the presence of chemical substance/The level of expressed mRNA in the absence of chemical substance: 1.0
Yeast gene YDL017W
  The level of expressed mRNA in the presence of chemical substance/The level of expressed mRNA in the absence of chemical substance: 0.8
Yeast gene YDL059C
  The level of expressed mRNA in the presence of chemical substance/The level of expressed mRNA in the absence of chemical substance: 0.8
Yeast gene YDL200C
  The level of expressed mRNA in the presence of chemical substance/The level of expressed mRNA in the absence of chemical substance: 0.9
Yeast gene YDR054C
  The level of expressed mRNA in the presence of chemical substance/The level of expressed mRNA in the absence of chemical substance: 0.8
Yeast gene YDR369C
  The level of expressed mRNA in the presence of chemical substance/The level of expressed mRNA in the absence of chemical substance: 0.8
Yeast gene YEL019C
  The level of expressed mRNA in the presence of chemical substance/The level of expressed mRNA in the absence of chemical substance: 0.8
Yeast gene YEL037C
  The level of expressed mRNA in the presence of chemical substance/The level of expressed mRNA in the absence of chemical substance: 1.0
Yeast gene YER162C
  The level of expressed mRNA in the presence of chemical substance/The level of expressed mRNA in the absence of chemical substance: 1.2
Yeast gene YFL014W
  The level of expressed mRNA in the presence of chemical substance/The level of expressed mRNA in the absence of chemical substance: 1.5
Yeast gene YGL058W
  The level of expressed mRNA in the presence of chemical substance/The level of expressed mRNA in the absence of chemical substance: 1.1
Yeast gene YGL091C
  The level of expressed mRNA in the presence of chemical substance/The level of expressed mRNA in the absence of chemical substance: 1.4
Yeast gene YGL127C
  The level of expressed mRNA in the presence of chemical substance/The level of expressed mRNA in the absence of chemical substance: 1.0
Yeast gene YGL163C
  The level of expressed mRNA in the presence of chemical substance/The level of expressed mRNA in the absence of chemical substance: 0.9
Yeast gene YGL249W
  The level of expressed mRNA in the presence of chemical substance/The level of expressed mRNA in the absence of chemical substance: 1.0
Yeast gene YGR180C
  The level of expressed mRNA in the presence of chemical substance/The level of expressed mRNA in the absence of chemical substance: 1.0
Yeast gene YGR231C
  The level of expressed mRNA in the presence of chemical substance/The level of expressed mRNA in the absence of chemical substance: 1.0
Yeast gene YGR258C
  The level of expressed mRNA in the presence of chemical substance/The level of expressed mRNA in the absence of chemical substance: 1.0
Yeast gene YHR164C
  The level of expressed mRNA in the presence of chemical substance/The level of expressed mRNA in the absence of chemical substance: 0.8
Yeast gene YIL036W
  The level of expressed mRNA in the presence of chemical substance/The level of expressed mRNA in the absence of chemical substance: 1.1
Yeast gene YIL072W
  The level of expressed mRNA in the presence of chemical substance/The level of expressed mRNA in the absence of chemical substance: 1.0
Yeast gene YIL143C
  The level of expressed mRNA in the presence of chemical substance/The level of expressed mRNA in the absence of chemical substance: 0.9
Yeast gene YIL153W
  The level of expressed mRNA in the presence of chemical substance/The level of expressed mRNA in the absence of chemical substance: 0.9
Yeast gene YIR002C
  The level of expressed mRNA in the presence of chemical substance/The level of expressed mRNA in the absence of chemical substance: 1.1
Yeast gene YJL026W
  The level of expressed mRNA in the presence of chemical substance/The level of expressed mRNA in the absence of chemical substance: 1.4
Yeast gene YJR046W
  The level of expressed mRNA in the presence of chemical substance/The level of expressed mRNA in the absence of chemical substance: 0.7
Yeast gene YJR052W
  The level of expressed mRNA in the presence of chemical substance/The level of expressed mRNA in the absence of chemical substance: 1.0
Yeast gene YKL145W
  The level of expressed mRNA in the presence of chemical substance/The level of expressed mRNA in the absence of chemical substance: 1.1
Yeast gene YLR103C
  The level of expressed mRNA in the presence of chemical substance/The level of expressed mRNA in the absence of chemical substance: 1.1
Yeast gene YLR233C
  The level of expressed mRNA in the presence of chemical substance/The level of expressed mRNA in the absence of chemical substance: 1.0
Yeast gene YLR288C
  The level of expressed mRNA in the presence of chemical substance/The level of expressed mRNA in the absence of chemical substance: 1.2
Yeast gene YML032C
  The level of expressed mRNA in the presence of chemical substance/The level of expressed mRNA in the absence of chemical substance: 1.0
Yeast gene YML058W
  The level of expressed mRNA in the presence of chemical substance/The level of expressed mRNA in the absence of chemical substance: 1.3
Yeast gene YMR035W
  The level of expressed mRNA in the presence of chemical substance/The level of expressed mRNA in the absence of chemical substance: 2.2
Yeast gene YMR072W
  The level of expressed mRNA in the presence of chemical substance/The level of expressed mRNA in the absence of chemical substance: 0.9
Yeast gene YMR096W
  The level of expressed mRNA in the presence of chemical substance/The level of expressed mRNA in the absence of chemical substance: 2.2
Yeast gene YMR284W
  The level of expressed mRNA in the presence of chemical substance/The level of expressed mRNA in the absence of chemical substance: 1.1
Yeast gene YNL213C
  The level of expressed mRNA in the presence of chemical substance/The level of expressed mRNA in the absence of chemical substance: 0.9
Yeast gene YNL250W
  The level of expressed mRNA in the presence of chemical substance/The level of expressed mRNA in the absence of chemical substance: 1.0
Yeast gene YNL261W
  The level of expressed mRNA in the presence of chemical substance/The level of expressed mRNA in the absence of chemical substance: 0.8
Yeast gene YNL312W
  The level of expressed mRNA in the presence of chemical substance/The level of expressed mRNA in the absence of chemical substance: 1.2
Yeast gene YOL043C
  The level of expressed mRNA in the presence of chemical substance/The level of expressed mRNA in the absence of chemical substance: 1.0
Yeast gene YOR005C
  The level of expressed mRNA in the presence of chemical substance/The level of expressed mRNA in the absence of chemical substance: 1.1
Yeast gene YOR386W
  The level of expressed mRNA in the presence of chemical substance/The level of expressed mRNA in the absence of chemical substance: 2.1
Yeast gene YPL022W
  The level of expressed mRNA in the presence of chemical substance/The level of expressed mRNA in the absence of chemical substance: 0.9
Yeast gene YPL164C
  The level of expressed mRNA in the presence of chemical substance/The level of expressed mRNA in the absence of chemical substance: 1.0
Yeast gene YPL194W
  The level of expressed mRNA in the presence of chemical substance/The level of expressed mRNA in the absence of chemical substance: 1.0
Yeast gene YPR025C
  The level of expressed mRNA in the presence of chemical substance/The level of expressed mRNA in the absence of chemical substance: 1.1

From patent publication US8192962B2, “Processes for detecting toxic substances” (Daikin Industries, Ltd., priority 2001, dated 2012)
